Data: the Deep4Chem optical property database
Where “and” joins values, the source holds several entries; their conditions need not be identical. Equal values may be shown once.

Assay: photoluminescence quantum yield (fraction); solvent given as SMILES

With `Oc1cc(-c2cccs2)ccc1-c1nc2ccccc2s1` the photoluminescence quantum yield (in CCO) was 0.1, the photoluminescence quantum yield (in ClCCl) was 0.0937 and the photoluminescence quantum yield (in O) was 0.01.

`COc1ccc(C2=[N+]3C(=Nc4c5c6ccccc6c6ccc(C(C)(C)C)cc6c5c(-c5ccc(OC)cc5)n4[B-]3(F)F)c3c2c2cc(C(C)(C)C)ccc2c2ccccc32)cc1` gave a photoluminescence quantum yield (in Cc1ccccc1) of 0.32.

With `c1ccc2c(c1)Oc1ccccc1N2c1ccc2c(c1)c1ccccc1n1ccnc21` the photoluminescence quantum yield (in O=P(c1ccccc1)(c1ccccc1)c1ccccc1Oc1ccccc1P(=O)(c1ccccc1)c1ccccc1) was 0.27.

For `CCCCCCCCCCCn1cccc1C1=[N+]2C(=Cc3c(C)cc(C)n3[B-]2(F)F)c2ccccc21`, the photoluminescence quantum yield (in C1CCOC1) was 0.98, the photoluminescence quantum yield (in CC#N) was 0.99 and the photoluminescence quantum yield (in CCCCCC) was 0.99. It also gave a photoluminescence quantum yield (in CO) of 0.96, a photoluminescence quantum yield (in Cc1ccccc1) of 0.99 and a photoluminescence quantum yield (in ClCCl) of 0.99.

`COc1ccc(-c2cnc3nn4ccccc4c3n2)cc1` gave a photoluminescence quantum yield (in C1CCOC1) of 0.83.

In the case of `CCCCCCN1C(=O)c2cccc3cc(/N=C\c4ccc(N5CCOCC5)cc4)cc(c23)C1=O`, the photoluminescence quantum yield (in ClC(Cl)Cl) is reported as 0.089.

For `CCCCCCCCCCCCCCCCCCOC(=O)/C=C/C1=CC2=C(c3c(C)cc(C)cc3C)c3cccn3[B-](F)(F)[N+]2=C1`, the photoluminescence quantum yield (in ClCCl) was 0.34.

Work on `CCOc1ccc2c(-c3nc(-c4ccccc4F)no3)cc(=O)oc2c1` yielded a photoluminescence quantum yield (in CCO) of 0.64 and a photoluminescence quantum yield (in ClC(Cl)Cl) of 0.36.

`CCC1=C(C)C(=O)n2c1cc1c(C)cc(C)n1c2=O` showed a photoluminescence quantum yield (in CO) of 0.89, a photoluminescence quantum yield (in CS(C)=O) of 0.92 and a photoluminescence quantum yield (in ClC(Cl)Cl) of 0.96. The photoluminescence quantum yield (in c1ccccc1) was 1.

Work on `CN1/C(=C/C=C(/C=C/C2=[N+](C)c3ccccc3C2(C)C)c2ccccc2)C(C)(C)c2ccccc21` yielded a photoluminescence quantum yield (in CCO) of 0.11, a photoluminescence quantum yield (in CO) of 0.09 and a photoluminescence quantum yield (in CS(C)=O) of 0.29.

With `C(C1=[NH+]c2cccc3cccc1c23)=c1[nH]c2cccc3cccc1c32` the photoluminescence quantum yield (in CO) was 0.0103.

Work on `CN(c1ccccc1)c1ccc(-c2ccc(-c3ccc(N(C)c4ccccc4)cc3)c3nc(-c4ccccc4)c(-c4ccccc4)nc23)cc1` yielded a photoluminescence quantum yield (in ClC(Cl)Cl) of 0.01.

Work on `Cc1cc2c3ccccc3[nH]c2c2[nH]c3ccccc3c12` yielded a photoluminescence quantum yield (in ClCCl) of 0.075.

Compound `CC(C)(C)Nc1cc2oc3cc(NC(C)(C)C)c(F)cc3c(=O)c2cc1F` has a photoluminescence quantum yield (in CCO) of 0.31.

`COc1cccc(OC)c1-c1c2ccc(=[N+]3CCN(C(=O)OC(C)(C)C)CC3)cc-2oc2cc(N3CCN(C(=O)OC(C)(C)C)CC3)ccc12` showed a photoluminescence quantum yield (in ClCCl) of 0.49.

Compound `CC1(C)c2ccccc2N(c2ccc(C(=CC#N)c3ccc(N4c5ccccc5C(C)(C)c5ccccc54)cc3)cc2)c2ccccc21` has a photoluminescence quantum yield (in Cc1ccccc1) of 0.313.

Work on `COc1ccc([Si](C)(C)C)c2ccccc12` yielded a photoluminescence quantum yield (in C1CCCCC1) of 0.65.

`CCN(CC)c1ccc2cc(/C=C/C(O)=C/C(C)=O)c(=O)oc2c1` showed a photoluminescence quantum yield (in CC#N) of 0.36, a photoluminescence quantum yield (in CC(C)=O) of 0.46 and a photoluminescence quantum yield (in CCOC(C)=O) of 0.5. For the same compound, the photoluminescence quantum yield (in CO) was 0.35, the photoluminescence quantum yield (in CS(C)=O) was 0.39 and the photoluminescence quantum yield (in Cc1ccccc1) was 0.66. For the same compound, the photoluminescence quantum yield (in ClC(Cl)Cl) was 0.53 and the photoluminescence quantum yield (in ClCCl) was 0.52.

Work on `CCCCCOc1ccc2c(c1)c1ccc3cccc4c5cccc6oc(=O)c2c(c65)c1c34` yielded a photoluminescence quantum yield (in C1CCOC1) of 0.529.

With `COC(=O)C[C@H](Cc1c[nH]c2ccccc12)NC(=O)[C@H](CC(=O)N[C@@H](CC1=CCc2ccccc21)C(=O)OC)NC(=O)[C@H](Cc1c[nH]c2ccccc12)NC(=O)OC(C)(C)C` the photoluminescence quantum yield (in CC#N) was 0.26, the photoluminescence quantum yield (in CCOC(C)=O) was 0.22 and the photoluminescence quantum yield (in CO) was 0.1.

With `Cn1cccc1-c1ccc(C#N)cc1` the photoluminescence quantum yield (in C1CCOC1) was 0.94, the photoluminescence quantum yield (in CC#N) was 0.51 and the photoluminescence quantum yield (in CCCCCC) was 0.92. The photoluminescence quantum yield (in CCCCOCCCC) was 1 and the photoluminescence quantum yield (in CCOCC) was 0.98.

For `N#CC1=C(c2ccc(-c3cccs3)s2)CCC1`, the photoluminescence quantum yield (in CCO) was 0.04.

In the case of `CCCCCCCCN1c2ccc(C#Cc3ccc(C(F)(F)F)cc3)cc2Sc2cc(C=O)ccc21`, the photoluminescence quantum yield (in C1CCOC1) is reported as 0.67, the photoluminescence quantum yield (in CC#N) is reported as 0.63 and the photoluminescence quantum yield (in CCCCCC) is reported as 0.57. It also gave a photoluminescence quantum yield (in CO) of 0.23, a photoluminescence quantum yield (in CS(C)=O) of 0.72 and a photoluminescence quantum yield (in Cc1ccccc1) of 0.62. It also gave a photoluminescence quantum yield (in ClC(Cl)Cl) of 0.59.

`CCOC(=O)c1c2c3c(ccc(Br)c3c3cc4c(cc13)[Si](C)(C)O[Si]4(C)C)N(C)C2=O` gave a photoluminescence quantum yield (in CC#N) of 0.31.

`CN(C)c1ccc(C2=Nc3sc4c(F)c(F)c(F)c(F)c4[n+]3[B-](F)(F)O2)cc1` showed a photoluminescence quantum yield (in C1CCOC1) of 0.47, a photoluminescence quantum yield (in CC#N) of 0.02 and a photoluminescence quantum yield (in Cc1ccccc1) of 0.65. It also gave a photoluminescence quantum yield (in ClCCl) of 0.66.

In the case of `CC1(C)c2ccccc2-c2ccc(N3c4ccc(-c5ccc(/C=C6\C(=O)c7ccc(C(=O)O)cc7C6=O)s5)cc4C4CCCC43)cc21` (stereo not given), the photoluminescence quantum yield (in ClC(Cl)Cl) is reported as 0.18.

For `CCOC(=O)c1cc(C(=O)OCC)c2ccc(C)cc2n1`, the photoluminescence quantum yield (in CCO) was 0.019.

`CCCCn1c2c(-c3ccc(N(c4ccccc4)c4ccccc4)cc3)cc(C#N)cc2c2cc(C#N)cc(-c3ccc(N(c4ccccc4)c4ccccc4)cc3)c21` gave a photoluminescence quantum yield (in ClCCl) of 0.6.

With `c1ccc(-n2cccc2)cc1` the photoluminescence quantum yield (in CC#N) was 0.17 and the photoluminescence quantum yield (in CCCCCC) was 0.24.

`CCC(CC)COC1=CC2=C3c4cc(OCC(CC)CC)c(-c5ccccc5)n4[B-](F)(F)[n+]4c3n(c3cc(C(C)(C)C)ccc34)[B-](F)(F)[N+]2=C1c1ccccc1` showed a photoluminescence quantum yield (in C1CCOC1) of 0.11 and a photoluminescence quantum yield (in ClCCl) of 0.13.

`CCCCCC(CC)C1(C(CC)CCCCC)c2ccccc2-c2ccc(C#Cc3cc(C#Cc4ccc5c(c4)C(C(CC)CCCCC)(C(CC)CCCCC)c4ccccc4-5)c4ccc5c(C#Cc6ccc7c(c6)C(C(CC)CCCCC)(C(CC)CCCCC)c6ccccc6-7)cc(C#Cc6ccc7c(c6)C(C(CC)CCCCC)(C(CC)CCCCC)c6ccccc6-7)c6ccc3c4c65)cc21` (stereo not given) showed a photoluminescence quantum yield (in Cc1ccccc1) of 0.67.

Work on `CCCCCCCCC1(CCCCCCCC)c2cc3c(cc2-c2sc(-c4ccc(/C=C5\SC(N6CCCCC6)=NC5=O)c5nsnc45)cc21)C(CCCCCCCC)(CCCCCCCC)c1cc(-c2ccc(/C=C4\SC(N5CCCCC5)=NC4=O)c4nsnc24)sc1-3` yielded a photoluminescence quantum yield (in C1CCOC1) of 0.14 and a photoluminescence quantum yield (in ClC(Cl)Cl) of 0.144.

`COc1ccc(-c2ccc(/C=C/c3cnc4ccccc4n3)cc2)cc1` showed a photoluminescence quantum yield (in ClCCl) of 0.42.

For `c1ccc(-n2c3c(c4c2-c2ccccc2C42c4ccccc4-c4ccccc42)C2(c4ccccc4-c4ccccc42)c2ccccc2-3)cc1`, the photoluminescence quantum yield (in C1CCOC1) was 0.37.

Compound `CCN(CC)c1ccc(-c2nc3c(c4c2-c2ccc(C#N)cc2CC4)-c2ccc(C#N)cc2CC3)cc1` has a photoluminescence quantum yield (in C1CCOC1) of 0.74, a photoluminescence quantum yield (in CC#N) of 0.339 and a photoluminescence quantum yield (in CCCCCC) of 0.209. The photoluminescence quantum yield (in CCOC(C)=O) was 0.565, the photoluminescence quantum yield (in CO) was 0.148 and the photoluminescence quantum yield (in CS(C)=O) was 0.47. For the same compound, the photoluminescence quantum yield (in Cc1ccccc1) was 0.427 and the photoluminescence quantum yield (in ClCCl) was 0.842.

For `COc1ccc(C2=CC(c3ccccc3)=[N+]3C2=Nc2c(-c4ccc(OC)cc4)cc(-c4ccccc4)n2[B-]3(F)F)cc1`, the photoluminescence quantum yield (in Cc1ccccc1) was 0.24 and the photoluminescence quantum yield (in ClC(Cl)Cl) was 0.23.

Compound `CCCCC(CC)Cn1c2cc(C#N)ccc2c2ccc(C#Cc3ccc4ccc5c(C#Cc6ccc7c8ccc(C#N)cc8n(CC(CC)CCCC)c7c6)ccc6ccc3c4c65)cc21` (stereo not given) has a photoluminescence quantum yield (in ClCCl) of 0.38.

For `CCN(CC)c1ccc(-c2nc(Oc3ccc(-c4nc5ccccc5s4)cc3)nc(Oc3ccc(-c4nc5ccccc5s4)cc3)n2)cc1`, the photoluminescence quantum yield (in CN(C)C=O) was 0.155.

`O=C1OC(=O)C2=C1S[C@]13C2=C[C@H](c2ccccc21)c1ccccc13` showed a photoluminescence quantum yield (in ClCCl) of 0.95.

Work on `CCCCCCCCCCCCSc1cc2c3c(ccc4c5c(SCCCCCCCCCCCC)cc6c7c(ccc(c1c34)c75)C(=O)N(C1CCCCC1)C6=O)C(=O)N(C1CCCCC1)C2=O` yielded a photoluminescence quantum yield (in ClC(Cl)Cl) of 0.155.

For `O=CN1N=C(c2ccc(Br)cc2)C[C@@H]1c1ccccc1`, the photoluminescence quantum yield (in C1CCCCC1) was 0.25, the photoluminescence quantum yield (in C1COCCO1) was 0.25 and the photoluminescence quantum yield (in CC#N) was 0.14. For the same compound, the photoluminescence quantum yield (in CCO) was 0.13, the photoluminescence quantum yield (in CCOC(C)=O) was 0.18 and the photoluminescence quantum yield (in CO) was 0.05. For the same compound, the photoluminescence quantum yield (in CS(C)=O) was 0.11, the photoluminescence quantum yield (in Cc1ccccc1) was 0.01 and the photoluminescence quantum yield (in ClC(Cl)(Cl)Cl) was 0.02.

`O=C1c2ccc3c4c(Oc5ccccc5)cc5c6c(ccc(c7c(Oc8ccccc8)cc(c2c37)C(=O)N1c1ccc(O)cc1)c64)C(=O)N(c1ccc(O)cc1)C5=O` showed a photoluminescence quantum yield (in C1CCOC1) of 0.3, a photoluminescence quantum yield (in CN1CCCC1=O) of 0.2 and a photoluminescence quantum yield (in CN(C)C=O) of 0.01.

With `c1ccc2nc(-n3c4ccccc4c4ccccc43)c(-n3c4ccccc4c4ccccc43)nc2c1` the photoluminescence quantum yield (in Cc1ccccc1) was 0.13.

For `CCCCc1ccc(-n2c3c4ccc(C(F)(F)F)cc4nc(-c4ccc(C#N)cc4)c3c3c2c2c(-c4ccc(C#N)cc4)nc4cc(C(F)(F)F)ccc4c2n3-c2ccc(CCCC)cc2)cc1`, the photoluminescence quantum yield (in ClC(Cl)Cl) was 0.14.

`CCOC(=O)c1ccc(C2=Cc3ccccc3P2(=O)c2ccccc2)cc1` (stereo not given) gave a photoluminescence quantum yield (in ClCCl) of 0.82.

Compound `CCCCc1cc2cccc[n+]2[b-]2c(-c3cccc4[b-]3[n+]3ccccc3cc4CCCC)cccc21` has a photoluminescence quantum yield (in C1CCCCC1) of 0.03.

In the case of `c1ccc2c3c(ccc2c1)-c1cccc2c1c-3cc1ccccc12`, the photoluminescence quantum yield (in CCCCCCC) is reported as 0.16.

For `Nc1cccc2c1ccc1[n+]2[B-](F)(F)n2c-1cc1c3ccccc3c3ccccc3c12`, the photoluminescence quantum yield (in ClCCl) was 0.1.

`CC(C)c1cc(C(C)C)c(B2c3ccccc3Oc3cc(N4c5ccccc5C5(c6ccccc6Oc6ccccc65)c5ccccc54)ccc32)c(C(C)C)c1` gave a photoluminescence quantum yield (in Cc1ccccc1) of 0.56.

For `O=[N+]([O-])c1ccc([N+]2=Cc3ccc4c5c(ccc4c3O[B-]2(c2c(F)c(F)c(F)c(F)c2F)c2c(F)c(F)c(F)c(F)c2F)C=[N+](c2ccc([N+](=O)[O-])cc2)[B-](c2c(F)c(F)c(F)c(F)c2F)(c2c(F)c(F)c(F)c(F)c2F)O5)cc1`, the photoluminescence quantum yield (in Cc1ccccc1) was 0.83 and the photoluminescence quantum yield (in ClCCl) was 0.66.

Compound `COc1ccc(/C=C/c2nc3ccccc3s2)cc1` has a photoluminescence quantum yield (in C1CCCCC1) of 0.005 and a photoluminescence quantum yield (in CO) of 0.001.

In the case of `CC1=[N+]2C(=C(c3ccc(N4CCCCC4)cc3)c3ccc(C)n3[B-]2(F)F)C=C1`, the photoluminescence quantum yield (in C1CCCCC1) is reported as 0.33, the photoluminescence quantum yield (in C1CCOC1) is reported as 0.01 and 0.008 and the photoluminescence quantum yield (in CC#N) is reported as 0.003 and 0.002. The photoluminescence quantum yield (in CC(=O)C(C)(C)C) was 0.004, the photoluminescence quantum yield (in CC(C)=O) was 0.002 and the photoluminescence quantum yield (in CCCCCC) was 0.341. The photoluminescence quantum yield (in CCOC(C)=O) was 0.006 and 0.005, the photoluminescence quantum yield (in CO) was 0.005 and 0.003 and the photoluminescence quantum yield (in Cc1ccccc1) was 0.13. For the same compound, the photoluminescence quantum yield (in ClC(Cl)Cl) was 0.077.

`COc1ccc(/C=C/c2cc(/C=C/c3ccc(N(c4ccccc4)c4ccccc4)cc3)nc(/C=C/c3ccc(N(C)C)cc3)n2)cc1` showed a photoluminescence quantum yield (in ClCCl) of 0.02.
